Reference: patent publication US9919998B2, “Antibacterial agents: Nα-aroyl-N-aryl-phenylalaninamides” (priority 2014, dated 2018)
Converted amounts (≈) assume the structure as drawn. “And” between values parts separate entries of the source, which are not always exact repeats. Equal entries are not always repeated. Where two headings read alike, the source gives them in different places.

Assays:
[1] = molecular target: Mycobacterium tuberculosis RNA polymerase (Mycobacterium tuberculosis, UniProt P9WGY7+P9WGY9); assay: Run-off transcription assay with Mycobacterium tuberculosis RNA polymerase (radiochemical); assay type: biochemical
Chain of Mycobacterium tuberculosis RNA polymerase (P9WGZ1 whole entry, the tested form may be a part): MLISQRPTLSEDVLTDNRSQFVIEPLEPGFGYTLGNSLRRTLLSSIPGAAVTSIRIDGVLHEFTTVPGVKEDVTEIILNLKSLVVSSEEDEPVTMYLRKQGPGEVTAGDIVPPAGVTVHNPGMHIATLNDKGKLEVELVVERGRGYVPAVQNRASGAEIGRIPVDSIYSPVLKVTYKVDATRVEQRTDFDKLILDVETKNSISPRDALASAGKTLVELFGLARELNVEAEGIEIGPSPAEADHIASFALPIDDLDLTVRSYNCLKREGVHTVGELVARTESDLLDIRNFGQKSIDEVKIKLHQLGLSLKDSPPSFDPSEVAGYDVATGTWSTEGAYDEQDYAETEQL
Chain of Mycobacterium tuberculosis RNA polymerase (P9WGY5 whole entry, further chain, the tested form may be a part): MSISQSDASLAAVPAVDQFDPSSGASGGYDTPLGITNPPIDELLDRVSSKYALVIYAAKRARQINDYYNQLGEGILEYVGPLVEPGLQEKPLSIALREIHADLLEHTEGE
Chain of Mycobacterium tuberculosis RNA polymerase (P9WGY9 whole entry, the tested form may be a part): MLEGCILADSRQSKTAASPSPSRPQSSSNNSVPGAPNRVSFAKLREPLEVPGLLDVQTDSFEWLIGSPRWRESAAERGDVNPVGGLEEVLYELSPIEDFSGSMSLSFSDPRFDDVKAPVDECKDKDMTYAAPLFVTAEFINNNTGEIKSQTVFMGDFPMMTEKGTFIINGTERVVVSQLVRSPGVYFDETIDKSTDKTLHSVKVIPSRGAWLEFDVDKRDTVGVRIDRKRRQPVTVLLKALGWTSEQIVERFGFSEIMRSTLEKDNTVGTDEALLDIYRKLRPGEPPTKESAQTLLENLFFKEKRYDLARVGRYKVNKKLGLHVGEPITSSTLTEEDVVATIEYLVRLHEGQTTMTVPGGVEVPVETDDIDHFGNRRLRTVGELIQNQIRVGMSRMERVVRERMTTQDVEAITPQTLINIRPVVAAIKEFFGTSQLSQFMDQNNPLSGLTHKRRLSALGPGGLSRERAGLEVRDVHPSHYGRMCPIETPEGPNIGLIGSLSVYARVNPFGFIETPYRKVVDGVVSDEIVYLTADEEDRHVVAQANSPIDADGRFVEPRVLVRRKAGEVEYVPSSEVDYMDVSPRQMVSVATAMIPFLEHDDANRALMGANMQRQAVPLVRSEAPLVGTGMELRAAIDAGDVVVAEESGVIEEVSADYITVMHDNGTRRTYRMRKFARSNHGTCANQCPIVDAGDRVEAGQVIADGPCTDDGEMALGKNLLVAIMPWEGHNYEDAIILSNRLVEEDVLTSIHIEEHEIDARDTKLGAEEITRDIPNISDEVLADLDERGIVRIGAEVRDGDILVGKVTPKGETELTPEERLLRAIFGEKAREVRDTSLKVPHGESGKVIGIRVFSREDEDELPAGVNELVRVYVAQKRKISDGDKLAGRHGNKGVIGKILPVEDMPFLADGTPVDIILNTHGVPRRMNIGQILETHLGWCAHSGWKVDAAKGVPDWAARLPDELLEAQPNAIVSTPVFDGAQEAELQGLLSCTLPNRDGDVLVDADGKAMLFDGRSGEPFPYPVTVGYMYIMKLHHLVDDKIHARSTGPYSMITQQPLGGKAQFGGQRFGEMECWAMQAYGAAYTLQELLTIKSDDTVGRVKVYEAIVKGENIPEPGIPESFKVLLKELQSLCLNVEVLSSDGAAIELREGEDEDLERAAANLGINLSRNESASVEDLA
Chain of Mycobacterium tuberculosis RNA polymerase (P9WGI1 whole entry, further chain, the tested form may be a part): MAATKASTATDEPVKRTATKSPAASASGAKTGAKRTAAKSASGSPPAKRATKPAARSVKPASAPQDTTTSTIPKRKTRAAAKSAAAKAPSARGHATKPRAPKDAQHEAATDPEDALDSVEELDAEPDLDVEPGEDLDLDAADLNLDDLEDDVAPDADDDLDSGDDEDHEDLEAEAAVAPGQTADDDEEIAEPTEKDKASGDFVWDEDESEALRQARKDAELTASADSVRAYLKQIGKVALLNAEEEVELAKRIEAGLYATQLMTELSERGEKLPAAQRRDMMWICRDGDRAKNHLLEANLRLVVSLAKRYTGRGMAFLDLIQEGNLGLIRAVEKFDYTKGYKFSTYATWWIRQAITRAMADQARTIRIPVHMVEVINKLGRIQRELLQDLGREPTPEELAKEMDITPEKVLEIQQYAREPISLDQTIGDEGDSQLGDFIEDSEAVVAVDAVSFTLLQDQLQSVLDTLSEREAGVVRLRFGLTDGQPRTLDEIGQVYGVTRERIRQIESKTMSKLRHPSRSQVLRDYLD
Chain of Mycobacterium tuberculosis RNA polymerase (P9WGY7 whole entry, the tested form may be a part): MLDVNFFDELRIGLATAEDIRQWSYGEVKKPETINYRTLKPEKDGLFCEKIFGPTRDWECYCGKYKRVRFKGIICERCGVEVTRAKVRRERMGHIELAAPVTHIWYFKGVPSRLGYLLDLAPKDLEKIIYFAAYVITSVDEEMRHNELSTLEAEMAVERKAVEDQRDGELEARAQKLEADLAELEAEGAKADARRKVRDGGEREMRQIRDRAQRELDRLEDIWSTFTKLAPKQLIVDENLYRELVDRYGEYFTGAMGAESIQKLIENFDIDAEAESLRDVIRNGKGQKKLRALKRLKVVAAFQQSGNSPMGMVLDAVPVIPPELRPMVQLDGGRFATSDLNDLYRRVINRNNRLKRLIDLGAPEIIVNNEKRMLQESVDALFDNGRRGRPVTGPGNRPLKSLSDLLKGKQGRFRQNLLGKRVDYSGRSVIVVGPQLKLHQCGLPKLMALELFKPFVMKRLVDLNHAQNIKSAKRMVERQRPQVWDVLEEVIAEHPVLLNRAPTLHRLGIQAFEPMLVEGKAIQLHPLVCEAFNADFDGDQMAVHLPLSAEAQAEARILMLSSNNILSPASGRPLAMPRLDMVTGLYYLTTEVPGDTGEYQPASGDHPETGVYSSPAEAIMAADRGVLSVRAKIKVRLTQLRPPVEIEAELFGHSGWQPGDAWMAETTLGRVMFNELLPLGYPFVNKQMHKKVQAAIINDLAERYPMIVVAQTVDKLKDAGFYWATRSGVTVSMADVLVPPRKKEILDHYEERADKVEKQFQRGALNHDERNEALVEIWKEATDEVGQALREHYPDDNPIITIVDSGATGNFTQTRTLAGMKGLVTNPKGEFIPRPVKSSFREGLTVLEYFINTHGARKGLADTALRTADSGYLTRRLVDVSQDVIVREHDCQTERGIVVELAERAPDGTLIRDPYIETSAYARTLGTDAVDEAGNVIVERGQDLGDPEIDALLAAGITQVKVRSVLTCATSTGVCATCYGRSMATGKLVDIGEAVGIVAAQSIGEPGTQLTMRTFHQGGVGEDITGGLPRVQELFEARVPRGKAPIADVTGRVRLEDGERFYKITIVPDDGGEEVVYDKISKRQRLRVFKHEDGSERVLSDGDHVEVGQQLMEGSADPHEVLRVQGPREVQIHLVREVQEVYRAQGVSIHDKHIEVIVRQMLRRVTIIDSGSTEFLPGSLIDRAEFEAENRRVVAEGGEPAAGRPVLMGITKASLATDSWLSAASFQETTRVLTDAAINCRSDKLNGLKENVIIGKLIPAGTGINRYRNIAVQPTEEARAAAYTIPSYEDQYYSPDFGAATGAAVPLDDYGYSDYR
Procedure: Run-off transcription assays with Mycobacterium tuberculosis RNA polymerase were performed using reaction mixtures containing (10 μl): 0-100 μM test compound, 75 nM Mycobacterium tuberculosis RNA polymerase core enzyme, 300 nM Mycobacterium tuberculosis σ^A, 20 nM 130 bp DNA fragment containing positions −100 to −1 of the bacteriophage […] N25 promoter followed by positions +1 to +30 of the lacUV5-15 promoter of [Mukhopadhyay, J., Kapanidis, A., Mekler, V., Kortkhonjia, E., Ebright, Y., Ebright, R. (2001) Cell 106, 453-463], 25 nM [alpha-^32P]UTP (600 Bq/pmol) for an initial 2 min at 37° C. and 100 μM [alpha-^32P]UTP (6 Bq/pmol) for a subsequent 5 min at 37° C., 100 μM ATP, 100 μM GTP, 100 μM UTP, 100 μM CTP, 40 mM Tris-HCl, pH 8.0, 80 mM NaCl, 5 mM MgCl2, 2.5 mM DTT, and 12.7% glycerol. Reactions were terminated by addition of […] 80% formamide, 10 mM EDTA, 0.04% bromophenol blue, and 0.04% xylene cyanol, followed by heating for 5 min at 90° C. Reaction products were resolved by 15% urea-PAGE, and quantified using a storage-phosphor scanner.

[2] = tested on: Mycobacterium tuberculosis H37Rv; assay: Microplate Alamar Blue assay (MABA) MIC, M. tuberculosis; assay type: cell-based
Excerpt: (§1) Minimal inhibitory concentrations (MICs) in Mycobacterium tuberculosis H37Rv and Mycobacterium avium ATCC 25291 were quantified using microplate Alamar Blue assays as described (MABA; [Collins, L. & Franzblau, S. (1997) Microplate Alamar Blue assay versus BACTEC 460 system for high-throughput screening of compounds against Mycobacterium tuberculosis and Mycobacterium avium. Antimicrob. Agents Chemother. 41, 1004-1009]).

[3] = tested on: Mycobacterium smegmatis ATCC 19420; assay: Broth microdilution MIC, M. smegmatis; assay type: cell-based; conditions: Mycolicibacterium smegmatis
Excerpt: (§2) MICs in Mycobacterium smegmatis ATCC 19420 and Mycobacterium smegmatis ATCC 19420 derivatives were quantified using broth microdilution assays as described [Clinical and Laboratory Standards Institute (CLSI/NCCLS) (2009) Methods for Dilution Antimicrobial Susceptibility Tests for Bacteria That Grow Aerobically; Approved Standard, Eighth Edition. CLIS Document M07-A8 (CLIS, Wayne Pa.)].

[4] = tested on: Vero E6 ATCC CRL1586 cells; assay: Mammalian-cell cytotoxicity, minimal cytotoxic concentration (CellTiter96); assay type: cell-based
Procedure: Minimal cytotoxic concentrations (MCCs) against mammalian cells in culture were determined using Vero E6 ATCC CRL1586 cells and the CellTiter96 assay kit (Promega, Inc.). […]

[5] = tested on: Mycobacterium avium ATCC 25291; assay: Microplate Alamar Blue assay (MABA) MIC, M. avium; assay type: cell-based; conditions: ATCC25291, M. avium ATCC 25291
Excerpt: as §1

[6] = tested on: rifampin-resistant mutants, derivatives of M. smegmatis ATCC19420; assay: MICs in rifampin-resistant mutants (cross-resistance levels); assay type: cell-based, Mycobacterium smegmatis
Excerpt: as §2

[7] = radiochemical transcription assays, M. tuberculosis RNA polymerase, read-out: Inhibition of mycobacterial RNA polymerase (IC50s)
[8] = Inhibition of mycobacterial RNA polymerase (IC50s), radiochemical transcription assays, M. tuberculosis RNA polymerase
[9] = MABA-MIC assays, read-out: Inhibition of mycobacterial growth in culture (MICs)
[10] = ATCC19420, broth microdilution assays, M. smegmatis ATCC19420, read-out: Inhibition of mycobacterial growth in culture (MICs)
[11] = read-out: MIC Mycobacterium tuberculosis H37Rv
[12] = ATCC19420, M. smegmatis ATCC 19420, read-out: MIC Mycobacterium smegmatis ATCC 19420

Row | SMILES | IC50 [1, 7] | IC50 [1, 8] [nM] | MIC [2, 9] [µg/mL] | MIC [3, 10] [µg/mL] | MCC mammalian cells Vero E6 ATCC CRL1586 [4] [µg/mL] | IC50 ([1]; IC50 Mycobacterium tuberculosis RNA polymerase) [nM] | MIC [2, 11] [µg/mL] | MIC [3, 12] [µg/mL] | MIC [5] [µg/mL] | cross-resistance of rifampin-resistant mutants to the compound [6]
1 | O=C(Nc1ccccn1)[C@H](Cc1ccccc1)Nc1ccccc1 | ≥ 100 nM and ~1000 nM |  |  |  |  |  |  |  |  | 
2 | Cc1ccccc1NC(=O)[C@@H](Cc1ccccc1)NC(=O)c1ccccc1 [AAP1a, Nα-benzoyl-N-(2-methylphenyl)-D-phenylalaninamide] |  | 130 | 3.13 (≈ 8.73 µM) | 0.2 (≈ 0.558 µM) |  |  |  |  |  | 
3 | Cc1ccccc1NC(=O)[C@H](Cc1ccccc1)NC(=O)c1ccccc1 [AAP1b, Nα-benzoyl-N-(2-methylphenyl)-L-phenylalaninamide] |  | 12000 | > 50 | 1.56 (≈ 4.35 µM) |  |  |  |  |  | 
4 | Cc1ccc(NC(=O)C(Cc2ccccc2)NC(=O)c2ccco2)cc1 (stereo not shown) [AAP2] |  | 5300 | 50 (≈ 144 µM) |  |  |  |  |  |  | 
5 | Cc1ccccc1NC(=O)C(Cc1cccc(O)c1)NC(=O)c1ccccc1 (stereo not shown) [I-12] |  |  |  |  | >100 | 3500 | > 50 | 3.12 (≈ 8.35 µM) |  | 
6 | CCCOc1ccccc1NC(=O)C(Cc1ccccc1)NC(=O)c1ccccc1 (stereo not shown) [I-39] |  |  |  |  | 20 |  | 6.25 (≈ 15.5 µM) | 0.78 (≈ 1.94 µM) | > 50 | No rifampin-resistant mutant was found to exhibit cross-resistance
7 | Cc1ccccc1NC(=O)C(Cc1ccccc1)NC(=O)c1ccccc1Cl (stereo not shown) [I-91] |  |  |  |  | 19 |  | > 50 | 0.39 (≈ 0.993 µM) | > 50 | No rifampin-resistant mutant was found to exhibit cross-resistance
8 | Cc1ccccc1NC(=O)C(Cc1ccccc1)NC(=O)c1ccccc1C (stereo not shown) [I-112] |  |  |  |  | 13 |  | > 50 | 0.39 (≈ 1.05 µM) | > 50 | No rifampin-resistant mutant was found to exhibit cross-resistance
9 | CCc1ccccc1NC(=O)C(Cc1ccccc1)NC(=O)c1ccccc1 (stereo not shown) [I-115] |  |  |  |  | 37 |  | > 50 | 0.39 (≈ 1.05 µM) | > 50 | No rifampin-resistant mutant was found to exhibit cross-resistance
10 | Cc1c(NC(=O)C(Cc2ccccc2)NC(=O)c2ccccc2)cccc1C(F)(F)F (stereo not shown) [I-160] |  |  |  |  | 21 |  | > 50 | 3.12 (≈ 7.33 µM) | > 50 | No rifampin-resistant mutant was found to exhibit cross-resistance
11 | Cc1ncccc1NC(=O)C(Cc1ccccc1)NC(=O)c1ccccc1 (stereo not shown) [II-5] |  |  |  |  | >36 |  | 50 (≈ 139 µM) | 3.12 (≈ 8.68 µM) | > 50 | No rifampin-resistant mutant was found to exhibit cross-resistance
12 | Cc1ccccc1NC(=O)C(Cc1ccccc1)NC(=O)c1ccccn1 (stereo not shown) [II-12] |  |  |  |  | >36 |  | 25 (≈ 69.6 µM) | 3.12 (≈ 8.69 µM) | 50 (≈ 139 µM) | No rifampin-resistant mutant was found to exhibit cross-resistance
13 | O=C(NC(Cc1ccccc1)C(=O)Nc1cccc2cc[nH]c12)c1ccccc1 (stereo not shown) [II-28] |  |  |  |  | 13 |  | 12.5 (≈ 32.6 µM) | 0.78 (≈ 2.03 µM) | > 50 | No rifampin-resistant mutant was found to exhibit cross-resistance
14 | Cc1ccccc1NC(=O)C(Cc1ccccc1)NC(=O)c1cccc2[nH]ccc12 (stereo not shown) [II-39] |  |  |  |  | 36 |  | 12.5 (≈ 31.4 µM) | 0.39 (≈ 0.981 µM) | 12.5 (≈ 31.4 µM) | No rifampin-resistant mutant was found to exhibit cross-resistance
15 | O=C(NC(Cc1ccccc1)C(=O)Nc1cccc2cccnc12)c1ccccc1 (stereo not shown) [IX-2, N-(1-oxo-3-phenyl-1-(quinolin-8-ylamino)propan-2-yl)benzamide] |  |  |  |  | >39 |  | > 39 | 3.12 (≈ 7.9 µM) | > 50 | No rifampin-resistant mutant was found to exhibit cross-resistance
16 | O=C(NC(Cc1ccccc1)C(=O)Nc1cccc2cnccc12)c1ccccc1 (stereo not shown) [IX-3, N-(1-(isoquinolin-5-ylamino)-1-oxo-3-phenylpropan-2-yl)benzamide] |  |  |  |  | >40 |  | 3.13 (≈ 7.91 µM) | 0.195 (≈ 0.493 µM) | 6.25 (≈ 15.8 µM) | No rifampin-resistant mutant was found to exhibit cross-resistance
17 | O=C(NC(Cc1ccccc1)C(=O)Nc1cccc2ncccc12)c1ccccc1 (stereo not shown) [IX-4, N-(1-oxo-3-phenyl-1-(quinolin-5-ylamino)propan-2-yl)benzamide] |  |  |  |  | >40 |  | 12.5 (≈ 31.6 µM) | 0.78 (≈ 1.97 µM) | > 50 | No rifampin-resistant mutant was found to exhibit cross-resistance
18 | O=C(NC(Cc1ccccc1)C(=O)Nc1cccc2c1OCCO2)c1ccccc1 (stereo not shown) [IX-5, N-(1-((2,3-dihydrobenzo[b][1,4]dioxin-5-yl)amino)-1-oxo-3-phenylpropan-2-yl)benzamide] |  |  |  |  | >40 |  | 6.25 (≈ 15.5 µM) | 0.39 (≈ 0.969 µM) | 6.25 (≈ 15.5 µM) | No rifampin-resistant mutant was found to exhibit cross-resistance
19 | O=C(NC(Cc1ccc(O)cc1)C(=O)Nc1cccc2c1CCC2)c1ccccc1 (stereo not shown) [IX-14, N-(1-((2,3-dihydro-1H-inden-4-yl)amino)-3-(4-hydroxyphenyl)-1-oxopropan-2-yl)benzamide] |  |  |  |  | >40 |  | 6.25 (≈ 15.6 µM) | 0.39 (≈ 0.974 µM) | 12.5 (≈ 31.2 µM) | No rifampin-resistant mutant was found to exhibit cross-resistance
20 | Cc1ccccc1N[C@@H](Cc1ccccc1)C(=O)Nc1ccccc1 [Nα-(2-methylphenyl)-N-phenyl-phenylalaninamide] | ≥ 100 nM |  |  | ≥ 0.3 |  |  |  |  |  | 
21 | O=C(Nc1ccccc1F)[C@H](Cc1ccccc1)Nc1ccccc1 [Nα-phenyl-N-(2-fluorophenyl)-phenylalaninamide] | ≥ 100 nM |  |  | ≥ 0.3 |  |  |  |  |  | 
22 | O=C(Nc1ccncc1)[C@H](Cc1ccccc1)Nc1ccccc1 [Nα-phenyl-N-(4-pyridyl)-phenylalaninamide] | ≥ 100 nM |  |  | ≥ 0.3 |  |  |  |  |  | 
23 | O=C(Nc1ccccc1)[C@H](Cc1ccccc1)Nc1ccccc1 [Nα-phenyl-N-phenyl-phenylalaninamide] | ≥ 100 nM |  |  | ≥ 0.3 |  |  |  |  |  | 
